# Laboratory results from ChEMBL document CHEMBL4831545, “Hormesis Effect of Berberine against Klebsiella pneumoniae Is Mediated by Up-Regulation of the Efflux Pump KmrA” (J Nat Prod, 2021).
# Columns and labels:
# Klebsiella pneumoniae [1] = test: Hormesis activity against Klebsiella pneumoniae assessed as increase in antibiotic MIC by measuring streptomycin MIC at 3 ug/ml incubated for 12 hrs by OD600 based analysis (reference value: 0.78125 ug/ml); type: ADME, organism-based; conditions: in vivo, dose 3 µg/ml
# Enterobacter cloacae [2] = test: Hormesis activity against overnight compound-treated Enterobacter cloacae assessed as increase in antibiotic MIC by measuring chloramphenicol MIC at 3 ug/ml incubated for 12 hrs by OD600 based analysis (reference value: 3.125 ug/ml); type: ADME, organism-based; conditions: in vivo, dose 3 µg/ml
# Klebsiella pneumoniae [3] = test: Hormesis activity against Klebsiella pneumonia deficient in KmrA gene expression assessed as promotion of bacterial growth at 3 to 6 ug/ml measured for 24 hrs by OD600 based analysis; type: organism-based; conditions: in vivo, dose 3-6 µg/ml
# Klebsiella pneumoniae [4] = test: Hormesis activity against Klebsiella pneumoniae assessed as promotion of bacterial growth at 3 to 6 ug/ml measured for 24 hrs in presence of efflux pump inhibitor, CCCP by OD600 based analysis; type: ADME, organism-based; conditions: in vivo, dose 3-6 µg/ml
# Enterobacter cloacae [5] = test: Hormesis activity against Enterobacter cloacae assessed as increase in antibiotic MIC by measuring ampicillin MIC at 3 ug/ml incubated for 12 hrs by OD600 based analysis (reference value: 25 ug/ml); type: ADME, organism-based; conditions: in vivo, dose 3 µg/ml
# [6] = Upregulation of efflux pump KmrA gene expression in Klebsiella pneumoniae at 3 ug/ml incubated for 12 hrs by transcriptome analysis; type: ADME; conditions: dose 3 µg/ml
# Acinetobacter baumannii [7] = test: Hormesis activity against Acinetobacter baumannii assessed as increase in antibiotic MIC by measuring ampicillin MIC at 3 ug/ml incubated for 12 hrs by OD600 based analysis (reference value: 100 ug/ml); type: ADME, organism-based; conditions: in vivo, dose 3 µg/ml
# Klebsiella pneumoniae [8] = test: Hormesis activity against overnight compound-treated Klebsiella pneumoniae assessed as increase in antibiotic MIC by measuring cefotaxime MIC at 3 ug/ml incubated for 12 hrs by OD600 based analysis (reference value: 0.39625 ug/ml); type: ADME, organism-based; conditions: in vivo, dose 3 µg/ml
# Klebsiella pneumoniae [9] = test: Hormesis activity against overnight compound-treated Klebsiella pneumoniae assessed as increase in antibiotic MIC by measuring atreonamMIC at 3 ug/ml incubated for 12 hrs by OD600 based analysis (reference value: 1.5625 ug/ml); type: ADME, organism-based; conditions: in vivo, dose 3 µg/ml
# Enterobacter cloacae [10] = test: Hormesis activity against Enterobacter cloacae assessed as increase in antibiotic MIC by measuring rifampicin MIC at 3 ug/ml incubated for 12 hrs by OD600 based analysis (reference value: 25 ug/ml); type: ADME, organism-based; conditions: in vivo, dose 3 µg/ml
# Enterobacter cloacae [11] = test: Hormesis activity against overnight compound-treated Enterobacter cloacae assessed as increase in antibiotic MIC by measuring meropenem MIC at 3 ug/ml incubated for 12 hrs by OD600 based analysis (reference value: 0.1953 ug/ml); type: ADME, organism-based; conditions: in vivo, dose 3 µg/ml
# Klebsiella pneumoniae [12] = test: Hormesis activity against Klebsiella pneumoniae deficient in KmrA gene expression assessed as increase in antibiotic MIC by measuring rifampicin MIC at 3 ug/ml incubated for 12 hrs by OD600 based analysis (reference value: 25 ug/ml); type: ADME, organism-based; conditions: in vivo, dose 3 µg/ml
# Klebsiella pneumoniae [13] = test: Hormesis activity against Klebsiella pneumoniae assessed as increase in antibiotic MIC by measuring rifampicin MIC at 3 ug/ml incubated for 12 hrs by OD600 based analysis (reference value: 25 ug/ml); type: ADME, organism-based; conditions: in vivo, dose 3 µg/ml
# Enterobacter cloacae [14] = test: Hormesis activity against Enterobacter cloacae assessed as promotion of bacterial growth by measuring prolonged logarithmic growth phase at 3 to 6 ug/ml measured for 24 hrs by OD600 based analysis; type: organism-based; conditions: in vivo, dose 3-6 µg/ml
# Enterobacter cloacae [15] = test: Hormesis activity against Enterobacter cloacae assessed as promotion of bacterial growth up to 25 ug/ml measured for 24 hrs in presence of 8 ug/ml tetracycline by OD600 based analysis; type: organism-based; conditions: in vivo, dose <=25 µg/ml
# Klebsiella pneumoniae [16] = test: Hormesis activity against overnight compound-treated Klebsiella pneumoniae assessed as increase in antibiotic MIC by measuring ciprofloxacin MIC at 3 ug/ml incubated for 12 hrs by OD600 based analysis (reference value: 0.0390625 ug/ml); type: ADME, organism-based; conditions: in vivo, dose 3 µg/ml
# Klebsiella pneumoniae [17] = test: Hormesis activity against Klebsiella pneumoniae assessed as increase in antibiotic MIC by measuring ampicillin MIC at 3 ug/ml incubated for 12 hrs by OD600 based analysis (reference value: 12.5 ug/ml); type: ADME, organism-based; conditions: in vivo, dose 3 µg/ml
# Klebsiella pneumoniae [18] = test: Hormesis activity against Klebsiella pneumoniae assessed as promotion of bacterial growth at 3 to 6 ug/ml measured for 24 hrs in presence of efflux pump inhibitor, CCCP and 1 to 2 ug/ml tetracycline by OD600 based analysis; type: ADME, organism-based; conditions: in vivo, dose 3-6 µg/ml
# Acinetobacter baumannii [19] = test: Hormesis activity against overnight-compound treated Acinetobacter baumannii assessed as increase in antibiotic MIC by measuring ciprofloxacin MIC at 3 ug/ml incubated for 12 hrs by OD600 based analysis (reference value: 0.3125 ug/ml); type: ADME, organism-based; conditions: in vivo, dose 3 µg/ml
# Klebsiella pneumoniae [20] = test: Hormesis activity against Klebsiella pneumoniae assessed as increase in antibiotic MIC by measuring ciprofloxacin MIC at 3 ug/ml incubated for 12 hrs by OD600 based analysis (reference value: 0.0390625 ug/ml); type: ADME, organism-based; conditions: in vivo, dose 3 µg/ml
# Enterobacter cloacae [21] = test: Hormesis activity against Enterobacter cloacae assessed as increase in antibiotic MIC by measuring chloramphenicol MIC at 3 ug/ml incubated for 12 hrs by OD600 based analysis (reference value: 3.125 ug/ml); type: ADME, organism-based; conditions: in vivo, dose 3 µg/ml
# Klebsiella pneumoniae [22] = test: Hormesis activity against Klebsiella pneumoniae deficient in KmrA gene expression assessed as increase in antibiotic MIC by measuring meropenem MIC at 3 ug/ml incubated for 12 hrs by OD600 based analysis (reference value: 0.39625 ug/ml); type: ADME, organism-based; conditions: in vivo, dose 3 µg/ml
# Klebsiella pneumoniae [23] = test: Hormesis activity against Klebsiella pneumoniae assessed as increase in antibiotic MIC by measuring hygromycinMIC at 3 ug/ml incubated for 12 hrs by OD600 based analysis (reference value: 12.5 ug/ml); type: ADME, organism-based; conditions: in vivo, dose 3 µg/ml
# Enterobacter cloacae [24] = test: Hormesis activity against Enterobacter cloacae assessed as promotion of bacterial growth up to 25 ug/ml measured for 24 hrs in presence of efflux pump inhibitor, CCCP and 8 ug/ml tetracycline by OD600 based analysis; type: ADME, organism-based; conditions: in vivo, dose <=25 µg/ml
# [25] = Upregulation of KmrA promoter activity in Klebsiella pneumoniae assessed as increase in beta-galactosidase activity at 3 ug/ml by LacZ based OD600 analysis relative to control; type: ADME; conditions: dose 3 µg/ml
# Enterobacter cloacae [26] = test: Hormesis activity against overnight compound-treated Enterobacter cloacae assessed as increase in antibiotic MIC by measuring atreonamMIC at 3 ug/ml incubated for 12 hrs by OD600 based analysis (reference value: 3.125 ug/ml); type: ADME, organism-based; conditions: in vivo, dose 3 µg/ml
# Klebsiella pneumoniae [27] = test: Hormesis activity against overnight compound-treated Klebsiella pneumoniae deficient in KmrA gene expression assessed as increase in antibiotic MIC by measuring streptomycin MIC at 3 ug/ml incubated for 12 hrs by OD600 based analysis (reference value: 0.78125 ug/ml); type: ADME, organism-based; conditions: in vivo, dose 3 µg/ml
# Enterobacter cloacae [28] = test: Hormesis activity against Enterobacter cloacae assessed as increase in antibiotic MIC by measuring tetracycline MIC at 3 ug/ml incubated for 12 hrs by OD600 based analysis (reference value: 8 ug/ml); type: ADME, organism-based; conditions: in vivo, dose 3 µg/ml
# Acinetobacter baumannii [29] = test: Hormesis activity against Acinetobacter baumannii assessed as increase in antibiotic MIC by measuring ciprofloxacin MIC at 3 ug/ml incubated for 12 hrs by OD600 based analysis (reference value: 0.3125 ug/ml); type: ADME, organism-based; conditions: in vivo, dose 3 µg/ml
# Klebsiella pneumoniae [30] = test: Hormesis activity against overnight compound-treated Klebsiella pneumoniae deficient in KmrA gene expression assessed as increase in antibiotic MIC by measuring tetracycline MIC at 3 ug/ml incubated for 12 hrs by OD600 based analysis (reference value: 6 ug/ml); type: ADME, organism-based; conditions: in vivo, dose 3 µg/ml
smiles,measurement,setting,value
COc1ccc2cc3[n+](cc2c1OC)CCc1cc2c(cc1-3)OCO2 [BERBERINE],MIC,Klebsiella pneumoniae [1],1.5625 µg/mL
same,MIC,Enterobacter cloacae [2],3.125 µg/mL
same,Activity,Klebsiella pneumoniae [3],Non-Toxic
same,Activity,Klebsiella pneumoniae [4],Non-Toxic
same,MIC,Enterobacter cloacae [5],25 µg/mL
same,Activity,[6],Toxic
same,MIC,Acinetobacter baumannii [7],200 µg/mL
same,MIC,Klebsiella pneumoniae [8],0.3962 µg/mL
same,MIC,Klebsiella pneumoniae [9],1.5625 µg/mL
same,MIC,Enterobacter cloacae [10],25 µg/mL
same,MIC,Enterobacter cloacae [11],0.1953 µg/mL
same,MIC,Klebsiella pneumoniae [12],25 µg/mL
same,MIC,Klebsiella pneumoniae [13],25 µg/mL
same,Activity,Enterobacter cloacae [14],Toxic
same,Activity,Enterobacter cloacae [15],Toxic
same,MIC,Klebsiella pneumoniae [16],0.1562 µg/mL
same,MIC,Klebsiella pneumoniae [17],12.5 µg/mL
same,Activity,Klebsiella pneumoniae [18],Non-Toxic
same,MIC,Acinetobacter baumannii [19],0.625 µg/mL
same,MIC,Klebsiella pneumoniae [20],0.07812 µg/mL
same,MIC,Enterobacter cloacae [21],3.125 µg/mL
same,MIC,Klebsiella pneumoniae [22],0.3962 µg/mL
same,MIC,Klebsiella pneumoniae [23],12.5 µg/mL
same,Activity,Enterobacter cloacae [24],Non-Toxic
same,fold change (FC),[25],2.5
same,MIC,Enterobacter cloacae [26],3.125 µg/mL
same,MIC,Klebsiella pneumoniae [27],1.5625 µg/mL
same,MIC,Enterobacter cloacae [28],8 µg/mL
same,MIC,Acinetobacter baumannii [29],0.3125 µg/mL
same,MIC,Klebsiella pneumoniae [30],6 µg/mL
